From patent publication US20250154198A1, “PEPTIDE INHIBITORS OF INTERLEUKIN-23 RECEPTOR” (Zealand Pharma A/S, priority 2021, published 2025)
*1 amine or outer side, *2 acyl side, *3 side chain or, on linkers, in order; H or OH if unused. Where a SMILES comes first, the peptide text is derived from it. Bridges are numbered along the chain shown (N, C = ends). [ ]: non-standard residue; d: D form. The star is where a group is joined. Trp(4-F) = N[C@@H](Cc1c[nH]c2cccc(F)c12)C(=O)O; Trp(7-F) = N[C@@H](Cc1c[nH]c2c(F)cccc12)C(=O)O; 2Nal = N[C@@H](Cc1ccc2ccccc2c1)C(=O)O; AEF = NCCOc1ccc(C[C@H](N)C(=O)O)cc1; X1 = O=C(Cc1ccc(CN[*:1])cc1)[*:2]; 3Pal = N[C@@H](Cc1cccnc1)C(=O)O; αMeL = CC(C)C[C@](C)(N)C(=O)O; CH2COCH2 = O=C(C[*:1])C[*:2]; 3Amb = NCc1cccc(C(=O)O)c1; Pyrrolidide = C1CCN(*)C1; Dab = NCC[C@H](N)C(=O)O; βAla = NCCC(=O)O

Target: T1, human IL-23R (Homo sapiens, UniProt Q5VWK5)
T1 construct: UniProtKB—Q5VWK5, amino acids 22-629; secretion signal of the plasmid (Promega N1371); expressed in transfected cells
T1 sequence (Q5VWK5 22-629): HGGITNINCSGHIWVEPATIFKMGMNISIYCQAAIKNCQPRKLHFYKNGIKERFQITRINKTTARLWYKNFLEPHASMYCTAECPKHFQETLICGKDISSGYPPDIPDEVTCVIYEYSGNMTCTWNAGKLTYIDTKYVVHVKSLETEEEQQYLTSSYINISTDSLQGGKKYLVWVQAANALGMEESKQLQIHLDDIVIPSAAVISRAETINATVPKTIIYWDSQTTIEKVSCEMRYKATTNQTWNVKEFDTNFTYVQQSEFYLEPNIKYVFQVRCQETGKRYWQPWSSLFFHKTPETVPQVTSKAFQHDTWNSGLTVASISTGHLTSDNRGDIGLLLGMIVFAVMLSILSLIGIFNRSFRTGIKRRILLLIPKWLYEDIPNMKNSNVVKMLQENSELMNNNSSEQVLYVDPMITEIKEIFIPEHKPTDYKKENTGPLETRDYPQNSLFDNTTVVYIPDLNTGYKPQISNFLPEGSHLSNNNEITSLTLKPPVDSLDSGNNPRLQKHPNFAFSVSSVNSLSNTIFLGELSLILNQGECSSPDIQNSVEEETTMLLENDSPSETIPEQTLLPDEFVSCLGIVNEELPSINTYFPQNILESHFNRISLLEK
Test: Binding assay (NanoBRET displacement of fluorophore-labelled reference compound) for estimating binding affinity to human IL-23R
Conditions: Table 3-1; read-out: Ki hIL-23R
From the text: Binding Assay for Estimating Binding Affinity of Compounds to Human IL-23R
The compound binding affinity for IL-23R was estimated by the ability of compounds to displace a fluorophore-labelled reference compound from the human IL-23R. The assay principle relies on Bioluminescence Resonance Energy Transfer (BRET) between a fluorophore-labelled reference compound binding to the IL-23R part of a fusion protein consisting of the IL-23R fused to a Nanoluc luciferase enzyme (Nanoluc). The Nanoluc is placed in the N-terminus in close proximity to the binding domain of the ligand. Upon close proximity between the fluorophore of the fluorophore-labelled compound and the Nanoluc of the fusion protein, bioluminescence energy generated from conversion of a Nanoluc substrate, is transferred to the fluorophore resulting in an increase in BRET. In presence of an unlabelled compound, the unlabelled compound displaces the fluorophore-labelled peptide from its binding site resulting in a decrease in BRET. The concentration for which half of the fluorophore-labelled peptide is displaced by the unlabelled compound depends on the affinity of the compound for the IL-23R, and is termed the IC50 concentration. An estimated affinity (K) of the unlabelled compound for the IL-23R may be calculated using the Cheng-Prussov equation, which takes into account the concentration of the fluorophore-labelled compound used, and the affinity of the fluorophore-labelled compound for IL-23R.
The plasmid also contained a gene to confer resistance for the antibiotic hygromycin. A cell line stably expressing the Nluc-IL23R fusion protein was generated by transfection of HEK293 cells with the expression plasmid and selected with hygromycin for 3 weeks in Growth medium consisting of DMEM w/Glutamax-I containing, 10% V/V FBS, 1% V/V P/S, 1 mM Sodium Pyruvate, and 1×NEAA, and 0.3 mg/mL hygromycin. The remaining cells were propagated and considered a stable expressing Nluc-IL23R fusion protein pool clone.
Cells expressing the Nluc-IL23R fusion protein were expanded in Growth medium and membranes prepared by homogenization of a cell pellet from 18 T175 flasks (4° C. in subsequent steps). The cell pellet was lysed Tris 10 mM, 7.5, 1 mM EDTA and protease inhibitors (Complete, Roche) and homogenized using a 15 mL glass-dounce by 50 strokes. The homogenate was spun at spin @1500 rpm for 10 min, the supernatant transferred to SV-34 tubes and spun at 40000 g for 20 min at 4° C. to pellet the crude membranes. The supernatant was then removed, the pellet resuspended in 5 mL buffer containing 50 mM HEPES pH 7.4, 5 mM EGTA, and 5 mM MgCl2, and homogenized. Aliquots of the resuspended and homogenized membranes containing the Nluc-IL23R fusion protein were stored at −80° C. until use.
The plate was sealed with light impermeable plate seals, and incubated on a orbital shaker 400 rpm for 2 hours at room temperature. To determine the BRET ratio, the plate seal was removed and 25 μL of the Nanoluc substrate (Promega N1572) diluted 1:500 was added to each well and incubated for 1-2 minutes on an orbital shaker at 400 rpm. […] The BRET ratio was calculated as the fluorescence from the TAMRA/nanoluc bioluminescence. The IC50 for each compound was determined by computer-aided curve fitting using a 4-parameter logistic (4PL) non-linear model.

Ki [nM] | Structure (SMILES)
0.188 | CC(C)C[C@]1(C)NC(=O)[C@H](Cc2ccc3ccccc3c2)NC(=O)[C@H](Cc2ccc(OCCN)cc2)NC(=O)[C@@H]2CSCC(=O)CSC[C@H](NC(=O)[C@H](CO)NC(=O)Cc3ccc(cc3)CNC(=O)CC[C@@H](C(=O)N[C@H](Cc3c[nH]cn3)C(N)=O)NC1=O)C(=O)N[C@@H](Cc1c[nH]c3ccccc13)C(=O)N[C@@H](CCC(N)=O)C(=O)N2 [Compound 117, [4-Aminomethyl-phenylacetyl](1c)*SC(2a)WQC(2a)[Y(2-aminoethoxy)][2-Nal][2-Me-Leu]E(1c)[{d}H]-[NH2]] ([X1]SCWQC[AEF][2Nal][αMeL]E[dH]-NH2; linker 3-6 via CH2COCH2; lactam N-10)
0.303 | CC(C)C[C@]1(C)NC(=O)[C@H](Cc2ccc3ccccc3c2)NC(=O)[C@H](Cc2ccc(OCCN)cc2)NC(=O)[C@@H]2CSCC(=O)CSC[C@H](NC(=O)[C@H](CO)NC(=O)Cc3ccc(cc3)CNC(=O)CC[C@@H](C(=O)NCCC(N)=O)NC1=O)C(=O)N[C@@H](Cc1c[nH]c3ccccc13)C(=O)N[C@@H](CCC(N)=O)C(=O)N2 [Compound 119, [4-Aminomethyl-phenylacetyl](1c)*SC(2a)WQC(2a)[Y(2-aminoethoxy)][2-Nal][2-Me-Leu]E(1c)[3-Aminopropanoyl]-[NH2]] ([X1]SCWQC[AEF][2Nal][αMeL]E[βAla]-NH2; linker 3-6 via CH2COCH2; lactam N-10)
0.718 | CC(C)C[C@]1(C)NC(=O)[C@H](Cc2ccc3ccccc3c2)NC(=O)[C@H](Cc2ccc(OCCN)cc2)NC(=O)[C@@H]2CCNC(=O)CC[C@H](NC(=O)[C@H](C(C)C)NC(=O)Cc3ccc(cc3)CNC(=O)CC[C@@H](C(=O)N[C@@H](CCN)C(N)=O)NC1=O)C(=O)N[C@@H](Cc1c[nH]c3ccccc13)C(=O)N[C@@H](CCC(N)=O)C(=O)N2 [Compound 126, [4-Aminomethyl-phenylacetyl](1c)*VE(2c)WQ[Dab](2c)[Y(2-aminoethoxy][2-Nal][2-Me-Leu]E(1c)[Dab]-[NH2]] ([X1]VEWQ[Dab][AEF][2Nal][αMeL]E[Dab]-NH2; lactam 3-6, N-10)
0.17 | CC(C)[C@]1(C)NC(=O)[C@H](Cc2ccc3ccccc3c2)NC(=O)[C@H](Cc2ccc(OCCN)cc2)NC(=O)[C@@H]2CCNC(=O)CC[C@H](NC(=O)[C@H](CO)NC(=O)Cc3ccc(cc3)CNC(=O)CC[C@@H](C(=O)N[C@@H](CCN)C(N)=O)NC1=O)C(=O)N[C@@H](Cc1c[nH]c3ccccc13)C(=O)N[C@@H](CCC(N)=O)C(=O)N2 [Compound 136, [4-Aminomethyl-phenylacetyl](1c)*SE(2c)WQ[Dab](2c)[Y(2-aminoethoxy)][2-Nal][2-Me-Val]E(1c)[Dab]-[NH2]]
0.723 | CC(C)C[C@]1(C)NC(=O)[C@H](Cc2ccc3ccccc3c2)NC(=O)[C@H](Cc2ccc(OCCN)cc2)NC(=O)[C@@H]2CCNC(=O)CC[C@H](NC(=O)[C@H](CO)NC(=O)Cc3ccc(cc3)CNC(=O)CC[C@@H](C(=O)N[C@@H](CCN)C(N)=O)NC1=O)C(=O)N[C@@H](Cc1c[nH]c3cccc(F)c13)C(=O)N[C@@H](CCC(N)=O)C(=O)N2 [Compound 138, [4-Aminomethyl-phenylacetyl](1c)*SE(2c)[4-F-Trp]Q[Dab](2c)[Y(2-aminoethoxy)][2-Nal][2-Me-Leu]E(1c)[Dab]-[NH2]] ([X1]SE[Trp(4-F)]Q[Dab][AEF][2Nal][αMeL]E[Dab]-NH2; lactam 3-6, N-10)
0.612 | CC(C)C[C@]1(C)NC(=O)[C@H](Cc2ccc3ccccc3c2)NC(=O)[C@H](Cc2ccc(OCCN)cc2)NC(=O)[C@@H]2CCNC(=O)CC[C@H](NC(=O)[C@H](CO)NC(=O)Cc3ccc(cc3)CNC(=O)CC[C@@H](C(=O)N[C@@H](CCN)C(N)=O)NC1=O)C(=O)N[C@@H](Cc1c[nH]c3c(F)cccc13)C(=O)N[C@@H](CCC(N)=O)C(=O)N2 [Compound 139, [4-Aminomethyl-phenylacetyl](1c)*SE(2c)[7-F-Trp]Q[Dab](2c)[Y(2-aminoethoxy)][2-Nal][2-Me-Leu]E(1c)[Dab]-[NH2]] ([X1]SE[Trp(7-F)]Q[Dab][AEF][2Nal][αMeL]E[Dab]-NH2; lactam 3-6, N-10)
0.723 | CC(C)C[C@]1(C)NC(=O)[C@H](Cc2ccc3ccccc3c2)NC(=O)[C@H](Cc2ccc(OCCN)cc2)NC(=O)[C@@H]2CCNC(=O)CC[C@H](NC(=O)[C@H](CCC(=O)N3CCCC3)NC(=O)Cc3ccc(cc3)CNC(=O)CC[C@@H](C(=O)N[C@@H](CCN)C(N)=O)NC1=O)C(=O)N[C@@H](Cc1c[nH]c3ccccc13)C(=O)N[C@@H](CCC(N)=O)C(=O)N2 [Compound 145, [4-Aminomethyl-phenylacetyl](1c)*[Q(pyrrolidin)]E(2c)WQ[Dab](2c)[Y(2-aminoethoxy)][2-Nal][2-Me-Leu]E(1c)[Dab]-[NH2]] ([X1]E(Pyrrolidide)EWQ[Dab][AEF][2Nal][αMeL]E[Dab]-NH2; lactam 3-6, N-10)
1.01 | CC(C)C[C@]1(C)NC(=O)[C@H](Cc2ccc3ccccc3c2)NC(=O)[C@H](Cc2ccc(OCCN)cc2)NC(=O)[C@@H]2CCNC(=O)CC[C@H](NC(=O)[C@H](CO)NC(=O)Cc3ccc(cc3)CNC(=O)CC[C@@H](C(=O)N[C@@H](CCN)C(N)=O)NC1=O)C(=O)N[C@@H](Cc1c[nH]c3ccccc13)C(=O)N[C@@H](CCC(=O)N1CCCC1)C(=O)N2 [Compound 146, [4-Aminomethyl-phenylacetyl](1c)*SE(2c)W[Q(pyrrolidin)][Dab](2c)[Y(2-aminoethoxy)][2-Nal][2-Me-Leu]E(1c)[Dab]-[NH2]] ([X1]SEWE(Pyrrolidide)[Dab][AEF][2Nal][αMeL]E[Dab]-NH2; lactam 3-6, N-10)
0.0119 | CC(C)C[C@]1(C)NC(=O)[C@H](Cc2ccc3ccccc3c2)NC(=O)[C@H](Cc2ccc(OCCN)cc2)NC(=O)[C@@H]2CSCC(=O)CSC[C@H](NC(=O)[C@H](CO)NC(=O)Cc3ccc(cc3)CNC(=O)CC[C@@H](C(=O)N[C@@H](CCCNC(=N)N)C(=O)N[C@@H](Cc3cccnc3)C(N)=O)NC1=O)C(=O)N[C@@H](Cc1c[nH]c3ccccc13)C(=O)N[C@@H](CCC(N)=O)C(=O)N2 [Compound 147, [4-Aminomethyl-phenylacetyl](1c)*SC(2a)WQC(2a)[Y(2-aminoethoxy)][2-Nal][2-Me-Leu]E(1c)R[3-(3-Pyridyl)-Ala]-[NH2]] ([X1]SCWQC[AEF][2Nal][αMeL]ER[3Pal]-NH2; linker 3-6 via CH2COCH2; lactam N-10)
0.00897 | CC(C)C[C@]1(C)NC(=O)[C@H](Cc2ccc3ccccc3c2)NC(=O)[C@H](Cc2ccc(OCCN)cc2)NC(=O)[C@@H]2CSCC(=O)CSC[C@H](NC(=O)[C@H](CO)NC(=O)c3cccc(c3)CNC(=O)CC[C@@H](C(=O)N[C@@H](CCN)C(=O)N[C@@H](Cc3cccnc3)C(N)=O)NC1=O)C(=O)N[C@@H](Cc1c[nH]c3ccccc13)C(=O)N[C@@H](CCC(N)=O)C(=O)N2 [Compound 148, [(3-Aminomethyl)benzoyl](1c)*SC(2a)WQC(2a)[Y(2-aminoethoxy)][2-Nal][2-Me-Leu]E(1c)[Dab][3-(3-Pyridyl)-Ala]-[NH2]] ([3Amb]SCWQC[AEF][2Nal][αMeL]E[Dab][3Pal]-NH2; linker 3-6 via CH2COCH2; lactam N-10)
